Assay results reported in ChEMBL document CHEMBL4414672, “Synthesis of certain benzothieno[3,2-d]pyrimidine derivatives as a selective SIRT2 inhibitors” (Eur J Med Chem, 2020).

Legend:
Type in all cases: functional
CCRF-CEM = assay: Growth inhibition of human CCRF-CEM cells at 10^-5 M incubated for 48 hrs by sulforhodamine B assay; settings: read-out: GI
K562 = assay: Growth inhibition of human K562 cells at 10^-5 M incubated for 48 hrs by sulforhodamine B assay; settings: K562, 48 h, read-out: GI
A549 = assay: Growth inhibition of human A549/ATCC cells at 10^-5 M incubated for 48 hrs by sulforhodamine B assay; settings: A549, 48 h, read-out: GI
EKVX = assay: Growth inhibition of human EKVX cells at 10^-5 M incubated for 48 hrs by sulforhodamine B assay; settings: read-out: GI
HOP-92 = assay: Growth inhibition of human HOP92 cells at 10^-5 M incubated for 48 hrs by sulforhodamine B assay; settings: HOP-92, 48 h, read-out: GI
NCI-H23 = assay: Growth inhibition of human NCI-H23 cells at 10^-5 M incubated for 48 hrs by sulforhodamine B assay; settings: NCI-H23, 48 h, read-out: GI
NCI-H322M = assay: Growth inhibition of human NCI-H322M cells at 10^-5 M incubated for 48 hrs by sulforhodamine B assay; settings: read-out: GI
NCI-H460 = assay: Growth inhibition of human NCI-H460 cells at 10^-5 M incubated for 48 hrs by sulforhodamine B assay; settings: NCI-H460, 48 h, read-out: GI
NCI-H522 = assay: Growth inhibition of human NCI-H522 cells at 10^-5 M incubated for 48 hrs by sulforhodamine B assay; settings: NCI-H522, 48 h, read-out: GI
COLO 205 = assay: Growth inhibition of human COLO205 cells at 10^-5 M incubated for 48 hrs by sulforhodamine B assay; settings: COLO 205, 48 h, read-out: GI
HCT-116 = assay: Growth inhibition of human HCT116 cells at 10^-5 M incubated for 48 hrs by sulforhodamine B assay; settings: HCT-116, 48 h, read-out: GI
HCT-15 = assay: Growth inhibition of human HCT15 cells at 10^-5 M incubated for 48 hrs by sulforhodamine B assay; settings: HCT-15, 48 h, read-out: GI
KM12 = assay: Growth inhibition of human KM12 cells at 10^-5 M incubated for 48 hrs by sulforhodamine B assay; settings: KM12, 48 h, read-out: GI
SW-620 = assay: Growth inhibition of human SW620 cells at 10^-5 M incubated for 48 hrs by sulforhodamine B assay; settings: SW-620, 48 h, read-out: GI
SF-268 = assay: Growth inhibition of human SF268 cells at 10^-5 M incubated for 48 hrs by sulforhodamine B assay; settings: SF-268, 48 h, read-out: GI
SF-295 = assay: Growth inhibition of human SF295 cells at 10^-5 M incubated for 48 hrs by sulforhodamine B assay; settings: SF-295, 48 h, read-out: GI
SF-539 = assay: Growth inhibition of human SF539 cells at 10^-5 M incubated for 48 hrs by sulforhodamine B assay; settings: SF-539, 48 h, read-out: GI
SNB-19 = assay: Growth inhibition of human SNB19 cells at 10^-5 M incubated for 48 hrs by sulforhodamine B assay; settings: SNB-19, 48 h, read-out: GI
SNB-75 = assay: Growth inhibition of human SNB75 cells at 10^-5 M incubated for 48 hrs by sulforhodamine B assay; settings: SNB-75, 48 h, read-out: GI
U-251 = assay: Growth inhibition of human U251 cells at 10^-5 M incubated for 48 hrs by sulforhodamine B assay; settings: U-251, 48 h, read-out: GI
LOX IMVI = assay: Growth inhibition of human LOXIMVI cells at 10^-5 M incubated for 48 hrs by sulforhodamine B assay; settings: read-out: GI
Malme-3M = assay: Growth inhibition of human MALME-3M cells at 10^-5 M incubated for 48 hrs by sulforhodamine B assay; settings: read-out: GI
M14 = assay: Growth inhibition of human M14 cells at 10^-5 M incubated for 48 hrs by sulforhodamine B assay; settings: M14, 48 h, read-out: GI
MDA-MB-435 = assay: Growth inhibition of human MDA-MB-435 cells at 10^-5 M incubated for 48 hrs by sulforhodamine B assay; settings: MDA-MB-435, 48 h, read-out: GI
SK-MEL-2 = assay: Growth inhibition of human SK-MEL-2 cells at 10^-5 M incubated for 48 hrs by sulforhodamine B assay; settings: SK-MEL-2, 48 h, read-out: GI
SK-MEL-5 = assay: Growth inhibition of human SK-MEL-5 cells at 10^-5 M incubated for 48 hrs by sulforhodamine B assay; settings: SK-MEL-5, 48 h, read-out: GI
IGROV-1 = assay: Growth inhibition of human IGROV1 cells at 10^-5 M incubated for 48 hrs by sulforhodamine B assay; settings: IGROV-1, 48 h, read-out: GI
OVCAR-3 = assay: Growth inhibition of human OVCAR3 cells at 10^-5 M incubated for 48 hrs by sulforhodamine B assay; settings: OVCAR-3, 48 h, read-out: GI
OVCAR-4 = assay: Growth inhibition of human OVCAR4 cells at 10^-5 M incubated for 48 hrs by sulforhodamine B assay; settings: OVCAR-4, 48 h, read-out: GI
OVCAR-8 = assay: Growth inhibition of human OVCAR8 cells at 10^-5 M incubated for 48 hrs by sulforhodamine B assay; settings: OVCAR-8, 48 h, read-out: GI
NCI/ADR-RES = assay: Growth inhibition of human NCI/ADR-RES cells at 10^-5 M incubated for 48 hrs by sulforhodamine B assay; settings: read-out: GI
SK-OV-3 = assay: Growth inhibition of human SKOV3 cells at 10^-5 M incubated for 48 hrs by sulforhodamine B assay; settings: SK-OV-3, 48 h, read-out: GI
A498 = assay: Growth inhibition of human A498 cells at 10^-5 M incubated for 48 hrs by sulforhodamine B assay; settings: A498, 48 h, read-out: GI
ACHN = assay: Growth inhibition of human ACHN cells at 10^-5 M incubated for 48 hrs by sulforhodamine B assay; settings: read-out: GI
SN12C = assay: Growth inhibition of human SN12C cells at 10^-5 M incubated for 48 hrs by sulforhodamine B assay; settings: read-out: GI
TK-10 = assay: Growth inhibition of human TK10 cells at 10^-5 M incubated for 48 hrs by sulforhodamine B assay; settings: TK-10, 48 h, read-out: GI
PC-3 = assay: Growth inhibition of human PC3 cells at 10^-5 M incubated for 48 hrs by sulforhodamine B assay; settings: PC-3, 48 h, read-out: GI
Hs-578T = assay: Growth inhibition of human Hs 578T cells at 10^-5 M incubated for 48 hrs by sulforhodamine B assay; settings: read-out: GI
T47D = assay: Growth inhibition of human T47D cells at 10^-5 M incubated for 48 hrs by sulforhodamine B assay; settings: read-out: GI

Compound | inhibition of growth at 10 µM (CCRF-CEM) | inhibition of growth at 10 µM (K562) | inhibition of growth at 10 µM (A549) | inhibition of growth at 10 µM (EKVX) | inhibition of growth at 10 µM (HOP-92) | inhibition of growth at 10 µM (NCI-H23) | inhibition of growth at 10 µM (NCI-H322M) | inhibition of growth at 10 µM (NCI-H460) | inhibition of growth at 10 µM (NCI-H522) | inhibition of growth at 10 µM (COLO 205) | inhibition of growth at 10 µM (HCT-116) | inhibition of growth at 10 µM (HCT-15) | inhibition of growth at 10 µM (KM12) | inhibition of growth at 10 µM (SW-620) | inhibition of growth at 10 µM (SF-268) | inhibition of growth at 10 µM (SF-295) | inhibition of growth at 10 µM (SF-539) | inhibition of growth at 10 µM (SNB-19) | inhibition of growth at 10 µM (SNB-75) | inhibition of growth at 10 µM (U-251) | other results
N=C1Nc2c(sc3ccc(Cl)cc23)C(c2ccccc2O)N1 (stereo not drawn) | -8.23% | -2.22% | -4.84% | 17.6% | 21.2% | 10.5% | 4.18% | 0.95% | 7.68% | -6.79% | 10.7% | -5.8% | -3.63% | 1.38% | 6.19% | -6.6% | -6.63% | -3.35% | 22.4% | -7.81% | inhibition of growth at 10 µM (LOX IMVI): -0.7%; inhibition of growth at 10 µM (Malme-3M): 4.61%; inhibition of growth at 10 µM (M14): 1.39%; inhibition of growth at 10 µM (MDA-MB-435): 2%; inhibition of growth at 10 µM (SK-MEL-2): 0.27%; inhibition of growth at 10 µM (SK-MEL-5): 2.66%; inhibition of growth at 10 µM (IGROV-1): 17.4%; inhibition of growth at 10 µM (OVCAR-3): -1.68%; inhibition of growth at 10 µM (OVCAR-4): 12.3%; inhibition of growth at 10 µM (OVCAR-8): -6.18%; inhibition of growth at 10 µM (NCI/ADR-RES): 7.92%; inhibition of growth at 10 µM (SK-OV-3): 9.9%; inhibition of growth at 10 µM (A498): 6.2%; inhibition of growth at 10 µM (ACHN): 18.8%; inhibition of growth at 10 µM (SN12C): -22.4%; inhibition of growth at 10 µM (TK-10): 38%; inhibition of growth at 10 µM (PC-3): -12.5%; inhibition of growth at 10 µM (Hs-578T): -10.5%; inhibition of growth at 10 µM (T47D): -13.9%
N#Cc1cnn(C2=Nc3c(sc4ccc(Cl)cc34)C(c3cccc([N+](=O)[O-])c3)N2)c1N (stereo not drawn) | -11.9% | 1.28% | -3.91% | 20.9% | 1.55% | 19.8% | 6.34% | -1.07% | 4.1% | -3.42% | 5.22% | -4.58% | 3.84% | -4.05% | 5.36% | -2.52% | 2.87% | -2.52% | 11.5% | -11.2% | inhibition of growth at 10 µM (LOX IMVI): 12.5%; inhibition of growth at 10 µM (Malme-3M): -6.04%; inhibition of growth at 10 µM (M14): -2.52%; inhibition of growth at 10 µM (MDA-MB-435): -7.15%; inhibition of growth at 10 µM (SK-MEL-2): -5.14%; inhibition of growth at 10 µM (SK-MEL-5): 4.88%; inhibition of growth at 10 µM (IGROV-1): 23.1%; inhibition of growth at 10 µM (OVCAR-3): -7.11%; inhibition of growth at 10 µM (OVCAR-4): -1.38%; inhibition of growth at 10 µM (OVCAR-8): -2.67%; inhibition of growth at 10 µM (NCI/ADR-RES): 5.59%; inhibition of growth at 10 µM (SK-OV-3): 5.04%; inhibition of growth at 10 µM (A498): -6.43%; inhibition of growth at 10 µM (ACHN): 15.2%; inhibition of growth at 10 µM (SN12C): -7.06%; inhibition of growth at 10 µM (TK-10): 25.1%; inhibition of growth at 10 µM (PC-3): 11%; inhibition of growth at 10 µM (Hs-578T): 3.32%; inhibition of growth at 10 µM (T47D): 10.1%
